Drawing on a melting point compilation (Tetko et al.; mined from patent text by program, amines drawn as free bases though some values may be those of a salt), this text covers melting point for 64 compounds.

As usually defined, the melting point is the temperature, or range, at which the solid turns liquid.

In turn, `N#Cc1ccccc1OCCCN1CCC(NC(=O)Cc2ccccc2)CC1` gave a melting point of 105 to 107 °C.
The compound `O=C1CCC(N2Cc3c(OCc4ccc5nc(CN6CCOCC6)cn5c4)cccc3C2=O)C(=O)N1` (centres undefined) came in with a melting point of 278 to 280 °C.
Turning to `O=C(CCCCl)Nc1ccc2c(c1)C(=O)c1cc(NC(=O)CCCCl)ccc1C2=O`, the melting point turned out to be 234 °C.
For the compound `O=C(Cc1ccccc1Cl)N[C@H]1C[C@H](C(=O)O)Nc2cc(Cl)cc(Cl)c21` (relative stereo), the melting point lay in the range of 244 to 245 °C.
With `O=C(Nc1ccccc1)C1=NOCCS1(=O)=O`, the melting point is 206 to 207 °C.
Consider `CC(C)(C)c1ccc(N2C[C@@H](COc3ccc(C(=O)O)cc3)CC2=O)cc1`, for which the melting point was 247 to 248 °C.
Turning to `COc1ccccc1C(=O)Nc1ccc(C(=O)N2Cc3cccn3Cc3ccccc32)cc1`, the melting point was 185 to 188 °C.
For the compound `COCCNc1nccc(Oc2ccc(NC(=O)c3cc(F)cc(N4CCOCC4)c3)c3ccccc23)n1`, the melting point lay in the range of 95 to 97 °C.
Take `Cc1c(C)c2c(c(C)c1NC=O)CC(C)(CBr)O2` (centres undefined): the melting point was in the range of 157 to 158 °C.
The compound `O=[N+]([O-])N=c1ccccn1Cc1ccccc1` registered a melting point of 125 to 126 °C.
`CCCCCC(=O)C=Cc1ccc(CCCCCCCCCC(=O)OC)s1` registered a melting point of 45 to 47 °C.
Regarding `CCCCCCCCCCCCCCCCCC(=O)N[C@H]1CCCNC(=O)C1`, the melting point was 87 to 88 °C.
The same measure for `CCCn1c2ccccc2c2cc(C(=O)CC(C)=O)ccc21`: 97 °C; for `CCOC(=O)C1(C(=O)OCC)CCC2(CC1)NCCc1cc(OC)c(OC)cc12`: 103 to 104 °C.
As to `COC(=O)CC(C#N)c1cccc2ccc(OC)cc12` (centres undefined), the melting point was 113 to 114 °C.
With `CCCCOc1ccc(S(=O)(=O)N2CC(N(Cc3ccccc3)CC(O)COc3cccc4[nH]c5ccccc5c34)C2)cc1` (centres undefined), the melting point lay within 65 to 67 °C.
In turn, `CC[C@@H](C)[C@@H]1NC(=O)OC1(c1ccccc1)c1ccccc1` registered a melting point of 221 to 223 °C.
Regarding `CCCCCCCCCCCCCCSc1ccc(C(=O)O)s1`, the melting point lay in the range of 106 to 108 °C.
The same measure for `CC1CC2C3CCC4=CC(=O)C=CC4(C)C3=CCC2(C)C1C(=O)COS(=O)(=O)c1ccc([N+](=O)[O-])cc1` (centres undefined): 151 to 160 °C; for `CSC(Nc1cc(C(F)(F)F)cc(C(F)(F)F)c1)=C(C#N)S(C)(=O)=O`: 129 to 131 °C; for `CNC(=O)Cc1ccc2c(c1)Cc1c-2[nH]c(=O)c2nccn12`: above 260 °C.
The same measure for `O=C(C=CC=C(c1ccccc1)c1ccccc1)NCCCCCC(=O)NO`: 167 to 169 °C; for `CCOC(=O)C(=CNc1ccc(OC)c(F)c1)C(=O)OCC`: 63 °C; for `O=C(NC[C@H]1CN(c2ccc(N3CCN(C(=O)OCc4ccccc4)CC3)c(F)c2)C(=O)O1)C(F)F`: 147 °C.
Compound `C=CCc1cc(C(=O)CC(=O)C(C)(C)C)cc(OC)c1O` showed a melting point of 115 to 116 °C.
Regarding `N#Cc1ccccc1N1CCc2ccccc21`, the melting point lay in the range of 94 to 96.5 °C.
In the case of `COc1ccc(CNC(N)=O)cc1OC`, the melting point lay in the range of 172 to 173 °C.
Turning to `COc1nc(N)nc(OC)n1`, the melting point was 218 to 221 °C.
The same measure for `NC(=O)c1ccnc(-c2ccccc2)c1N`: 163 to 164 °C.
On to `CC(C)N1CCC(CNc2ccc(F)cc2C(=O)Nc2ccc(Cl)cn2)CC1`, for which the melting point was 142 to 144 °C.
As for `CC(NC(=O)C(F)c1cc(F)cc(F)c1)C(=O)NC1N=C(c2ccccc2)c2ccccc2N(C)C1=O` (centres undefined), the melting point was in the range of 119 to 120 °C.
The same measure for `CCN1c2cc(C)c(C)cc2N(C)C(=O)c2cccnc21`: 140 to 144 °C; for `CCOC(=O)Cc1c2cc(F)ccc2n2c(-c3ccc(SC)cc3)nccc12`: 59 to 62 °C.
The same measure for `CC(=O)NC1CCC(=O)c2ccccc21` (centres undefined): 128 to 130 °C; for `COc1cc2nc(C(=O)O)c(=O)n(C)c2cc1OC`: 261 °C; for `N#Cc1nn(-c2c(Cl)cc(C(F)(F)F)cc2Cl)c(N)c1C#CCO`: 237 to 239 °C.
Take `CCCCCC1(C#N)CCC(c2ccc(-c3ccc(CCC)cc3)cc2)CC1` (centres undefined): the melting point was determined as 75 °C.
With `CC(O)CC1NC(=O)c2sccc2-n2cccc21` (centres undefined), the melting point came to 170 °C.
In turn, `CC(C)=CCNC(=O)N1CC(Oc2cccc(C(F)(F)F)c2)C1` had a melting point of 143 to 144 °C.
Consider `C=CCN1CCC=C(c2csc(N)n2)C1`, for which the melting point lay within 129 to 132 °C.
`Cc1cc(C)cc(Oc2c(C=O)c(C)[nH]c(=O)c2I)c1` gave a melting point above 260 °C.
Consider `CC(C)(C)Sc1ccc(CC=CN(O)C(N)=O)s1`, for which the melting point lay in the range of 111 to 113 °C.
Take `Cc1cc(SCc2ccnc3[nH]c(-c4ccc(C(F)(F)F)cc4)nc23)ccc1OCC(=O)O`: the melting point is 239 to 241 °C.
The same measure for `COc1ccccc1NC(=O)Nc1nc(Nc2ccccc2-c2ccccc2)nc(N(CCC(=O)O)Cc2ccc(-c3ccccc3)cc2)n1`: 144 to 147 °C.
The same measure for `CSc1cn(C)c2sccc2c1=O`: 138 to 140 °C; for `O=Cc1ccc(-c2ncc(Cl)cn2)cc1`: 186 °C.
With `CN(c1cc(F)c(C#N)cc1F)c1nnnn1-c1ccc(F)cc1`, the melting point was 162 °C.
`COc1ccc(Cn2c(=O)c3ccccc3n(CCCCBr)c2=O)cc1`: the melting point was 124 to 125 °C.
As to `Cc1cc(-n2ccnc2)c2cccc(OCc3c(Cl)ccc(S(=O)(=O)N4CCC[C@H]4C(=O)N(C)CCCN(C)CCCCO)c3Cl)c2n1`, the melting point worked out at 82 °C.
Regarding `CCN1CCC(O)(c2ccc(F)c(Cl)c2)C1` (centres undefined), the melting point lay within 157 to 158 °C.
In turn, `CC=Cc1c(N)nc(-c2ccc(C(F)(F)F)cc2)nc1C(=O)OC` registered a melting point of 123 to 125 °C.
Take `CC(C)OC(=O)CCN=c1sc2ccccc2s1`: the melting point was 60 to 61 °C.
Take `CCOCC1=NNC(=O)N(N=Cc2cccnc2)C1`: the melting point fell in the range of 156 to 158 °C.
`CC1=CC(COC(c2ccccc2)(c2ccccc2)c2ccccc2)O[C@@H]1c1coc(C#N)c1N` (some centres undefined) registered a melting point of 68 °C.
On to `CCOC(=O)CS(=O)(=O)Nc1c(C(C)C)cccc1C(C)C`, for which the melting point was in the range of 114 to 116 °C.
As for `NC(C=Cc1cccc(Cl)c1)=NO`, the melting point was 195 to 197 °C.
The compound `COC(=O)c1c(OCc2ccccc2)ccc2c1CC[C@@H](NC1CCC1)[C@@H]2O` (relative stereo) showed a melting point of 117 to 119 °C.
`C=CCN(C(C)=O)c1cccc(C(=O)C=CN(C)C)c1` returned a melting point of 91 to 94 °C.
`CC(C)Cc1nc2ccc(Br)cc2c(-c2ccccc2)c1CN` registered a melting point of 129 to 130 °C.
The compound `Cn1nc(C2(OCC3CCN(C(=O)OC(C)(C)C)CC3)C=CC=CC2)c2ccccc2c1=O` (centres undefined) had a melting point of 167 to 169 °C.
The compound `CC(C)(C)c1cc(C(=O)OCc2ccccc2)cc(C(C)(C)C)c1O` gave a melting point of 80 to 83 °C.
The same measure for `Cc1ccc(Oc2ccc(NN)cc2)c(O)c1`: 145 to 148 °C; for `CN(C)CC(=O)N1c2ccccc2N(C)C(=O)c2cnc(-c3ccccc3)nc21`: 207 to 208 °C; for `NS(=O)(=O)c1cc(C(=O)O)c(NCc2ccccc2)cc1Oc1ccccc1`: 237 to 239 °C.
